This note sets out measurements from publication PMC7543951 (Molecular cell, 2020).

The structures appear in SMILES notation.

The target in this assay is T1, ROR1 pseudokinase domain (Homo sapiens, UniProt Q01973).
T1 sequence (Q01973 457-752): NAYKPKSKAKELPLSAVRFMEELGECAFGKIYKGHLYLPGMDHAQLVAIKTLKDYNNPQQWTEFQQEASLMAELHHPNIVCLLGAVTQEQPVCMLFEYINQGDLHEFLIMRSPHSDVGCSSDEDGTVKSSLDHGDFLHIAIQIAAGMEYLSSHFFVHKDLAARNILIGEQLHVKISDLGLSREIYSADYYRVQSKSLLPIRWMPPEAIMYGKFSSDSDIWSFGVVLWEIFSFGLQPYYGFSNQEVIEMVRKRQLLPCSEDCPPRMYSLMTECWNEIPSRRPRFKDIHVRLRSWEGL
As to the kind of experiment: DSF concentration series. The format is binding.

The compound `Cc1ccc(C(=O)Nc2ccc(CN3CCN(C)CC3)c(C(F)(F)F)c2)cc1C#Cc1cnc2[nH]ncc2c1` [GZD824] registered an IC50 of approximately 1000 nM.

One may read the IC50 as the concentration that inhibits the measured activity by half.
